Assay results: patent publication US12370192B2, “Azole-fused pyridazin-3(2H)-one derivatives” (TAKEDA PHARMACEUTICAL COMPANY LIMITED, priority 2019, dated 2025)

Assays:
human GPR139 receptor [1] = target: T1, human GPR139 receptor (Homo sapiens, UniProt Q6DWJ6); assay: Measurement of GPR139 Activation Via Calcium Signaling (FLIPR, T-REx-CHO cells); assay type: cell-based; conditions: T-REx-CHO cells stably expressing human GPR139, 11-point dose response, 10 μM maximum concentration, read-out: GPR139 Potency (pEC50) (converted)
T1 construct: expressed in transfected cells; host or cells: T-REx-CHO (Thermo Fisher Scientific), doxycycline-induced
T1 sequence (Q6DWJ6 1-353): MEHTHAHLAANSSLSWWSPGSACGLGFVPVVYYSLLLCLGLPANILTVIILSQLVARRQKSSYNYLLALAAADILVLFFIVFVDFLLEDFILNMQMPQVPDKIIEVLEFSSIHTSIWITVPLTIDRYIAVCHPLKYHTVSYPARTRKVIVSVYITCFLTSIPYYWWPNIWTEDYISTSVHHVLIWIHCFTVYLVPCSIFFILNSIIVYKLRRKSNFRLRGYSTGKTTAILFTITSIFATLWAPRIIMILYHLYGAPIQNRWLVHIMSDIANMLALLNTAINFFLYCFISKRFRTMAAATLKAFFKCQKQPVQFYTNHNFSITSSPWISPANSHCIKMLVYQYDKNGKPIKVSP
How it was run: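 Calcium flux read by FLIPR for 1 min after adding compounds (11 concentrations, maximum 10 μM) to doxycycline-induced (2 μg/mL, 17 h) T-REx-CHO cells expressing human GPR139. Cells dye-loaded 40 min at 37 °C in HBSS, 1 mM HEPES pH 7.4 with probenecid; activation reported as pEC50 from four-parameter logistic fit.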

human GPR139 receptor [2] = target: T1, human GPR139 receptor; assay: GPR139 Competition Binding (membrane-based, tritium-labeled ligand); conditions: T-REx-CHO membranes with human GPR139; 6.5 nM tritium-labeled ligand; 11-point curve, 30 μM maximum concentration; read-out: GPR139 Binding Affinity (pKi) (converted)
How it was run: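 Membranes came from doxycycline-induced T-REx-CHO cells expressing human GPR139. They were incubated 20 min at room temperature with 6.5 nM tritiated ligand and compound (11 points, top 30 μM) in HEPES pH 7.3 buffer with MgCl2/CaCl2. Filter-bound counts gave Ki by four-parameter fit, reported as pKi.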

Row | SMILES | EC50 (human GPR139 receptor [1]) [nM] | Ki (human GPR139 receptor [2]) [nM]
1 | Cc1ccc([C@H](C)NC(=O)Cn2ncc3c(c(C)nn3C3CC3)c2=O)cc1 [Example 122, (S)-2-(1-cyclopropyl-3-methyl-4-oxo-1,4-dihydro-5H-pyrazolo[3,4-d]pyridazin-5-yl)-N-(1-(p-tolyl)ethyl)acetamide] | 83.2 | 245
2 | COc1ccc([C@H](C)NC(=O)Cn2nc(C)c3c(c(C)nn3C)c2=O)cc1 [Example 123, (S)—N-(1-(4-methoxyphenyl)ethyl)-2-(1,3,7-trimethyl-4-oxo-1,4-dihydro-5H-pyrazolo[3,4-d]pyridazin-5-yl)acetamide] | 2140 | 1450
3 | Cc1ccc([C@H](C)NC(=O)Cn2ncc3c(c(C4CC4)nn3C)c2=O)c(F)c1 [Example 124, (S)-2-(3-cyclopropyl-1-methyl-4-oxo-1,4-dihydro-5H-pyrazolo[3,4-d]pyridazin-5-yl)-N-(1-(2-fluoro-4-methylphenyl)ethyl)acetamide] | 60.3 | 7.08
4 | C[C@H](NC(=O)Cn1ncc2c(c(C3CC3)nn2C)c1=O)c1ccc(OC(F)(F)F)cc1 [Example 125, (S)-2-(3-cyclopropyl-1-methyl-4-oxo-1,4-dihydro-5H-pyrazolo[3,4-d]pyridazin-5-yl)-N-(1-(4-(trifluoromethoxy)phenyl)ethyl)acetamide] | 123 | 47.9
5 | Cc1nn(C)c2cnn(CC(=O)N[C@@H](C)c3c(F)cccc3F)c(=O)c12 [Example 126, (S)—N-(1-(2,6-difluorophenyl)ethyl)-2-(1,3-dimethyl-4-oxo-1,4-dihydro-5H-pyrazolo[3,4-d]pyridazin-5-yl)acetamide] | 324 | 955
6 | COc1ccc([C@H](C)NC(=O)Cn2ncc3c(c(C)nn3C3CC3)c2=O)c(F)c1 [Example 127, (S)-2-(1-cyclopropyl-3-methyl-4-oxo-1,4-dihydro-5H-pyrazolo[3,4-d]pyridazin-5-yl)-N-(1-(2-fluoro-4-methoxyphenyl)ethyl)acetamide] | 25.7 | 933
7 | Cc1nn(C2CC2)c2cnn(CC(=O)N[C@@H](C)c3ccc(F)cc3F)c(=O)c12 [Example 128, (S)-2-(1-cyclopropyl-3-methyl-4-oxo-1,4-dihydro-5H-pyrazolo[3,4-d]pyridazin-5-yl)-N-(1-(2,4-difluorophenyl)ethyl)acetamide] | 67.6 | 257
8 | COc1ccc([C@H](C)NC(=O)Cn2ncc3c(c(C)nn3C3CC3)c2=O)cc1F [Example 129, (S)-2-(1-cyclopropyl-3-methyl-4-oxo-1,4-dihydro-5H-pyrazolo[3,4-d]pyridazin-5-yl)-N-(1-(3-fluoro-4-methoxyphenyl)ethyl)acetamide] | 53.7 | 724
9 | Cc1ccc([C@H](C)NC(=O)Cn2ncc3c(c(C)nn3C3CC3)c2=O)cc1F [Example 130, (S)-2-(1-cyclopropyl-3-methyl-4-oxo-1,4-dihydro-5H-pyrazolo[3,4-d]pyridazin-5-yl)-N-(1-(3-fluoro-4-methylphenyl)ethyl)acetamide] | 17.8 | 38
10 | Cc1nn(C2CC2)c2cnn(CC(=O)N[C@@H](C)c3ccc(F)cc3Cl)c(=O)c12 [Example 131, (S)—N-(1-(2-chloro-4-fluorophenyl)ethyl)-2-(1-cyclopropyl-3-methyl-4-oxo-1,4-dihydro-5H-pyrazolo[3,4-d]pyridazin-5-yl)acetamide] | 41.7 | 42.7
11 | COc1cc([C@H](C)NC(=O)Cn2ncc3c(c(C)nn3C3CC3)c2=O)ccc1F [Example 132, (S)-2-(1-cyclopropyl-3-methyl-4-oxo-1,4-dihydro-5H-pyrazolo[3,4-d]pyridazin-5-yl)-N-(1-(4-fluoro-3-methoxyphenyl)ethyl)acetamide] | 708 | 2240
12 | Cc1nn(C2CC2)c2cnn(CC(=O)N[C@@H](C)c3c(F)cc(F)cc3F)c(=O)c12 [Example 133, (S)-2-(1-cyclopropyl-3-methyl-4-oxo-1,4-dihydro-5H-pyrazolo[3,4-d]pyridazin-5-yl)-N-(1-(2,4,6-trifluorophenyl)ethyl)acetamide] | 295 | 316
13 | Cc1cc([C@H](C)NC(=O)Cn2ncc3c(c(C)nn3C3CC3)c2=O)ccc1F [Example 134, (S)-2-(1-cyclopropyl-3-methyl-4-oxo-1,4-dihydro-5H-pyrazolo[3,4-d]pyridazin-5-yl)-N-(1-(4-fluoro-3-methylphenyl)ethyl)acetamide] | 24 | 589
14 | Cc1nn(C2CC2)c2cnn(CC(=O)N[C@@H](C)c3cc(F)cc(F)c3)c(=O)c12 [Example 135, (S)-2-(1-cyclopropyl-3-methyl-4-oxo-1,4-dihydro-5H-pyrazolo[3,4-d]pyridazin-5-yl)-N-(1-(3,5-difluorophenyl)ethyl)acetamide] | 14.1 | 132
15 | Cc1nn(C2CC2)c2cnn(CC(=O)N[C@@H](C)c3c(F)cccc3Cl)c(=O)c12 [Example 136, (S)—N-(1-(2-chloro-6-fluorophenyl)ethyl)-2-(1-cyclopropyl-3-methyl-4-oxo-1,4-dihydro-5H-pyrazolo[3,4-d]pyridazin-5-yl)acetamide] | 91.2 | 81.3
16 | Cc1nn(CC(=O)N[C@@H](C)c2ccc(C(F)(F)F)cn2)c(=O)c2ncn(C)c12 [Example 137, (S)-2-(1,7-dimethyl-4-oxo-1,4-dihydro-5H-imidazo[4,5-d]pyridazin-5-yl)-N-(1-(5-(trifluoromethyl)pyridin-2-yl)ethyl)acetamide] | 2630 | 30200
17 | Cc1ccc([C@H](C)NC(=O)Cn2ncc3ncn(C)c3c2=O)cc1 [Example 138, (S)-2-(3-methyl-4-oxo-3,4-dihydro-5H-imidazo[4,5-d]pyridazin-5-yl)-N-(1-(p-tolyl)ethyl)acetamide] | 363 | 30200
18 | C[C@H](NC(=O)Cn1ncc2ncn(C)c2c1=O)c1ccc(C(F)(F)F)cc1 [Example 139, (S)-2-(3-methyl-4-oxo-3,4-dihydro-5H-imidazo[4,5-d]pyridazin-5-yl)-N-(1-(4-(trifluoromethyl)phenyl)ethyl)acetamide] | 257 | 3800
19 | Cc1ccc([C@H](C)NC(=O)Cn2ncc3c(ncn3C)c2=O)cc1 [Example 140, (S)-2-(1-methyl-4-oxo-1,4-dihydro-5H-imidazo[4,5-d]pyridazin-5-yl)-N-(1-(p-tolyl)ethyl)acetamide] | 525 | 30200
20 | C[C@H](NC(=O)Cn1ncc2c(ncn2C)c1=O)c1ccc(C(F)(F)F)cc1 [Example 141, (S)-2-(1-methyl-4-oxo-1,4-dihydro-5H-imidazo[4,5-d]pyridazin-5-yl)-N-(1-(4-(trifluoromethyl)phenyl)ethyl)acetamide] | 457 | 5890
21 | C[C@H](NC(=O)Cn1ncc2c(C3CC3)nn(C)c2c1=O)c1ccc(C(F)(F)F)cc1 [Example 142, (S)-2-(3-cyclopropyl-1-methyl-7-oxo-1,7-dihydro-6H-pyrazolo[3,4-d]pyridazin-6-yl)-N-(1-(4-(trifluoromethyl)phenyl)ethyl)acetamide] | 95.5 | 229
22 | C[C@H](NC(=O)Cn1ncc2c(C3CC3)nn(C)c2c1=O)c1ccc(OC(F)(F)F)cc1 [Example 143, (S)-2-(3-cyclopropyl-1-methyl-7-oxo-1,7-dihydro-6H-pyrazolo[3,4-d]pyridazin-6-yl)-N-(1-(4-(trifluoromethoxy)phenyl)ethyl)acetamide] | 117 | 178
23 | Cc1cn(C2CC2)c2cnn(CC(=O)N[C@@H](C)c3ccc(C(F)(F)F)cc3)c(=O)c12 [Example 144, (S)-2-(1-cyclopropyl-3-methyl-4-oxo-1,4-dihydro-5H-pyrrolo[2,3-d]pyridazin-5-yl)-N-(1-(4-(trifluoromethyl)phenyl)ethyl)acetamide] | 83.2 | 20
24 | COc1ccc([C@H](C)NC(=O)Cn2ncc3c(c(C)cn3C3CC3)c2=O)cc1 [Example 145, (S)-2-(1-cyclopropyl-3-methyl-4-oxo-1,4-dihydro-5H-pyrrolo[2,3-d]pyridazin-5-yl)-N-(1-(4-methoxyphenyl)ethyl)acetamide] | 29.5 | 89.1
25 | Cc1cn(C2CC2)c2cnn(CC(=O)N[C@@H](C)c3ccccc3)c(=O)c12 [Example 146, (S)-2-(1-cyclopropyl-3-methyl-4-oxo-1,4-dihydro-5H-pyrrolo[2,3-d]pyridazin-5-yl)-N-(1-phenylethyl)acetamide] | 51.3 | 34.7
26 | Cc1ccc([C@H](C)NC(=O)Cn2ncc3c(c(C)cn3C3CC3)c2=O)cc1 [Example 147, (S)-2-(1-cyclopropyl-3-methyl-4-oxo-1,4-dihydro-5H-pyrrolo[2,3-d]pyridazin-5-yl)-N-(1-(p-tolyl)ethyl)acetamide] | 33.1 | 7.59
